The test system of one assay is A549 cells. In words: In vitro cytotoxicity assay (MTT, 72 h). Type of assay: cell-based. The note with it: Homo sapiens, growth inhibition. On the procedure:
(§1) Six different cell lines were used, including human breast cancer cell lines MDA-MB-231 (6×10^3) and MDA-MB-453 (2.4×10^4), human colorectal cell line SW48 (2.4×10^4), human breast epithelial cell line M10 (6×10^3), human cancer cell line A549 (1.4×10^3), and murine colorectal carcinoma tumors CT26 (6×10^3), which were seeded in a 96-well plate. […] After 72 h, MTT assay (Cayman™) was used to determine the cellular viability.

For another assay, the system named is MDA-MB-453 cells. Description: In vitro cytotoxicity assay (MTT, 72 h). Type of assay: cell-based. The note with it: Homo sapiens, growth inhibition. On the procedure: as §1
A further assay concerns MDA-MB-231 cells. Description: In vitro cytotoxicity assay (MTT, 72 h). Type of assay: cell-based. The note with it: Homo sapiens, growth inhibition. On the procedure:
as §1

The next assay deals with SW48 cells. Description: In vitro cytotoxicity assay (MTT, 72 h). Type of assay: cell-based. The note with it: Homo sapiens, growth inhibition. On the procedure:
as §1

The test system of a further assay is M10 cells. In words: In vitro cytotoxicity assay (MTT, 72 h). The note with it: growth inhibition, human normal cell line. Type of assay: cell-based. On the procedure: as §1
The next assay concerns CT-26 cells. In words: In vitro cytotoxicity assay (MTT, 72 h). Type of assay: cell-based, murine. The note with it: Mus musculus, CT26, growth inhibition. On the procedure: as §1
Another assay has as its system CT26 tumor. In words: Experimental tumor model and therapies, CT26 tumor-bearing mice.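 Also: male Balb/c mice bearing CT26 grafts in the back, treated once tumors reached roughly 250–300 mm^3, tumor volume measured twice weekly, response graded by fold growth after treatment end.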
Where [1] appears, read: FIG. 3E, oral 12 days, Cabozantinib 30 mg/kg, Cbo-20 30 mg/kg, GNTbm-38-K30 40 mg/kg.
Where [2] appears, read: FIG. 7E, Cbo-23-K30 30 mg/kg, Zanzalintinib hemifumarate 30 mg/kg, GNTbm-38-2HCL 40 mg/kg.
Where [3] appears, read: FIG. 5E, Cbo-23 30 mg/kg, Regorafenib 30 mg/kg, GNTbm-38-K30 20 mg/kg in combination, 5 mg/kg alone.

This is an account of results in patent US20250120967A1, “TYROSINE KINASES INHIBITORS AND USES THEREOF” (GREAT NOVEL THERAPEUTICS BIOTECH & MEDICALS CORPORATION, priority 2023, published 2025).

Some results are limits rather than exact numbers.

In general, IC50 refers to the concentration that gives 50% inhibition. A low value points to inhibition by little substance.

Experimental for CT26 tumor: LLC1 was grown at 37° C. under humidified air supplemented with CO2 in DMEM (#10-013-CM, Corning®) containing 10% heat inactivated fetal calf serum, and 1× concentration of MycoZap Antibiotics. CT26 was grown at 37° C. under humidified air supplemented with CO2 in RPMI1640 (cat. #10-040-CM, Corning®) containing 10% heat inactivated fetal calf serum, and 1× concentration of MycoZap Antibiotics. After the cancer cell culture was completed, it was implanted (1×10^6 cells/mouse) into the back of the mouse for growth.
Six- to eight-week-old male Balb/c mice (National Laboratory Animal Center, Taiwan) were used for all animal experiments. […] Tumors were allowed to grow for 10-12 days (tumor size about 250-300 mm^3) before randomization and treatment. The tumor volume of the mice was measured once every three or four days (twice/week). Animals were euthanized when tumors reached more than 3000 mm^3 in diameter. […] Relapse/recurrence was defined as when tumor growth reappeared and tumor size reached at least 5 fold in mice with CR or PR response after secondary tumor assessment. In this study, we defined Complete Response (CR, <0.5 time tumor growth in the tumor bearing mice at tumor assessment after the end of treatment); Partial Response (PR, tumor size ≥0.5 time tumor growth, but <1 time tumor growth in the tumor bearing mice at tumor assessment after the end of treatment); Stable Disease (SD, ≥1 time tumor growth, but <5 times tumor growth in the tumor bearing mice at tumor assessment after the end of treatment); and Progressive Disease (PD, ≥5 times tumor growth in the tumor bearing mice at tumor assessment after the end of treatment) for the evaluation of treatment efficacy.

Take `COc1cc2nccc(Oc3ccc(C(=O)NC4(C(=O)Nc5ccc(F)cc5)CC4)cc3F)c2cc1OC` [Cbo-03, 4-((6,7-diMethoxyquinolin-4-yl)oxy)-3-fluoro-N-(1-((4-fluorophenyl)carbamoyl)cyclopropyl)benzamide]: the IC50 was 12.8 ± 6.7 µM with A549 cells; 17.9 ± 1.34 µM with MDA-MB-453 cells; 12.7 ± 1.37 µM in the assay with MDA-MB-231 cells; more than 25 µM in the assay with SW48 cells; 16.2 ± 1.44 µM with M10 cells.

For the compound `COc1cc2nccc(Oc3ccc(NC(=O)C4(NC(=O)c5ccc(F)cc5)CC4)cc3F)c2cc1Oc1ccc(N)cc1` [Cbo-05], the IC50 in the assay on A549 cells worked out at 2.51 ± 0.21 µM; with MDA-MB-453 cells it was 8.92 ± 1.49 µM; with MDA-MB-231 cells it was 7.84 ± 1.34 µM; in the assay with SW48 cells, 1.86 ± 0.059 µM; in the assay on M10 cells, 1.17 ± 0.053 µM; in the assay on CT-26 cells, 8.9 ± 0.61 µM.

Take `COc1cc2nccc(Oc3ccc(NC(=O)C4(NC(=O)c5ccc(F)cc5)CC4)cc3F)c2cc1Oc1ccc(N)cn1` [Cbo-06]: the IC50 with A549 cells is 6.89 ± 1.61 µM; in the assay on MDA-MB-453 cells it was more than 25 µM; with MDA-MB-231 cells, more than 25 µM; in the assay with SW48 cells, 8.76 ± 0.52 µM; in the assay with M10 cells, 5.59 ± 0.46 µM.

Consider `COc1cc2nccc(Oc3ccc(NC(=O)C4(NC(=O)c5ccc(F)cc5)CC4)cc3F)c2cc1O` [Cbo-07, 4-Fluoro-N-(1-((3-fluoro-4-((6-hydroxy-7-methoxyquinolin-4-yl)oxy)phenyl)carbamoyl)cyclopropyl)benzamide], for which the IC50 in the assay with A549 cells was 1.49 ± 0.21 µM; in the assay on MDA-MB-453 cells, more than 25 µM; with MDA-MB-231 cells, 5.07 ± 1.04 µM; in the assay on SW48 cells, 0.74 ± 0.13 µM; in the assay on M10 cells it was 4.44 ± 1.51 µM.

Take `COc1cc2nccc(Oc3ccc(NC(=O)C4(NC(=O)c5ccc(F)cc5)CC4)cc3F)c2cc1Oc1cccc(N)c1` [Cbo-08]: the IC50 with A549 cells is 2.6 ± 1.82 µM; in the assay with MDA-MB-453 cells it was more than 25 µM; in the assay on MDA-MB-231 cells, more than 25 µM; in the assay with SW48 cells it was 3.51 ± 0.48 µM; in the assay on M10 cells, 1.83 ± 0.72 µM.

Turning to `COc1cc2nccc(Oc3ccc(NC(=O)C4(NC(=O)c5ccc(F)cc5)CC4)cc3F)c2cc1Oc1ccc(N)cc1C` [Cbo-09], the half-maximal inhibitory concentration (IC50) in the assay on A549 cells was 6.89 ± 1.61 µM; in the assay on MDA-MB-453 cells, 9.28 ± 0.66 µM; in the assay with MDA-MB-231 cells, 12.6 ± 0.98 µM; with SW48 cells, 1.02 ± 0.008 µM; in the assay with M10 cells, 0.99 ± 0.044 µM.

As for `COc1cc2nccc(Oc3ccc(N(C(=O)C4(C(N)=O)CC4)c4ccc(F)cc4)cc3F)c2cc1OC` [Cbo-20, N-(4-((6,7-dimethoxyquinolin-4-yl)oxy)-3-fluorophenyl)-N-(4-fluorophenyl)cyclo-propane-1,1-dicarboxamide], the IC50 is 3.34 ± 0.69 µM with A549 cells; 14.1 ± 2.06 µM with MDA-MB-453 cells; 4.81 ± 1.16 µM in the assay with MDA-MB-231 cells; 2.51 ± 0.18 µM in the assay on SW48 cells; 5.47 ± 1.73 µM in the assay with M10 cells; 8.89 ± 0.24 µM in the assay with CT-26 cells. In the assay with CT26 tumor (setting [1]), the “CR (number of mice)” value worked out at 2. Moreover, in the assay with CT26 tumor (setting [1]), the ORR is given as 50%. Moreover, in the assay on CT26 tumor (setting [1]), the “PD (number of mice)” value came to 2. For the same compound, the “PR (number of mice)” value in the assay with CT26 tumor (setting [1]) is reported as 2. Further, the “Survival Rate” value in the assay with CT26 tumor (FIG. 3F, Cabozantinib 30 mg/kg, Cbo-20 30 mg/kg, GNTbm-38-K30 40 mg/kg) turned out to be 25%. Also, the recurrence rate in the assay with CT26 tumor (FIG. 3G, day 60, Cabozantinib 30 mg/kg, Cbo-20 30 mg/kg, GNTbm-38-K30 40 mg/kg) worked out at 75%.

On to `CC(CN)NC(=O)c1cc(Oc2ccc(N(C(=O)C3(C(N)=O)CC3)c3ccc(F)cc3)cc2F)ccn1` (centres unmarked) [Cbo-22, N-(4-((2-((1-aminopropan-2-yl)carbamoyl)pyridin-4-yl)oxy)-3-fluorophenyl)-N-(4-fluorophenyl)cyclopropane-1,1-dicarboxamide], for which the IC50 in the assay with A549 cells was 11.2 ± 1.18 µM; in the assay on MDA-MB-453 cells it was more than 25 µM; in the assay on MDA-MB-231 cells, 16.1 ± 0.19 µM; in the assay on SW48 cells, 21.9 ± 0.96 µM; in the assay on M10 cells, 15.1 ± 0.44 µM; in the assay with CT-26 cells, more than 25 µM. In addition, in the assay on CT26 tumor (FIG. 4D, Cabozantinib 30 mg/kg, Cbo-22 30 mg/kg, GNTbm-38-K30 40 mg/kg), the ORR is listed as 0%. Moreover, in the assay on CT26 tumor (FIG. 4E, Cabozantinib 30 mg/kg, Cbo-22 30 mg/kg, GNTbm-38-K30 40 mg/kg), the “Survival Rate” value was determined as 0%.

As for `COc1cc2nccc(Oc3ccc(NC(=O)C4(C(=O)Nc5ccc(F)cc5)CC4)cc3F)c2cc1C(=O)NC(C)CN` (centres unmarked) [Cbo-24, O-phenyl-N-(4-fluorophenyl)cyclopropane-1,1-dicarboxamide], the IC50 was 16.2 ± 0.95 µM in the assay with A549 cells; 17 ± 0.96 µM in the assay with MDA-MB-453 cells; 15.7 ± 0.33 µM in the assay with MDA-MB-231 cells; 8.75 ± 0.55 µM in the assay on SW48 cells; more than 25 µM in the assay with M10 cells; more than 25 µM with CT-26 cells.

In the case of `Nc1ccccc1NC(=O)c1ccc(NC(=O)C/C=C/c2cccnc2)cc1` [GNTbm-38-2HCL, (E)-N-(2-aminophenyl)-4-(4-(pyridin-3-yl)but-3-enamido)benzamide], in the assay with CT26 tumor (setting [2]), the “CR (number of mice)” value is 0, the ORR turned out to be 0%, the “PD (number of mice)” value is 9 and the “PR (number of mice)” value came out at 0.

On to `CNC(=O)c1cc(Oc2ccc(NC(=O)Nc3ccc(Cl)c(C(F)(F)F)c3)c(F)c2)ccn1` [Regorafenib], for which, in the assay on CT26 tumor (setting [3]), the “CR (number of mice)” value is 0, the ORR worked out at 0%, the “PD (number of mice)” value is reported as 7 and the “PR (number of mice)” value was found to be 0. For the same compound, the “Survival Rate” value in the assay with CT26 tumor (FIG. 5F, Cbo-23 30 mg/kg, Regorafenib 30 mg/kg, GNTbm-38-K30 20 mg/kg in combination, 5 mg/kg alone) is reported as 0%.

Turning to Zanzalintinib hemifumarate, in the assay with CT26 tumor (setting [2]), the “CR (number of mice)” value came to 0, the ORR is listed as 0%, the “PD (number of mice)” value came to 9 and the “PR (number of mice)” value came to 0. For the same compound, in the assay on CT26 tumor (FIGS. 7B, 7C, Cbo-23-K30 30 mg/kg, Zanzalintinib hemifumarate 30 mg/kg, GNTbm-38-2HCL 40 mg/kg), the “tumor inhibition rate at day 28” value stood at 2%.
